Assay results from patent publication US10072026B2, “Crystalline form of 3-((1R,3s,5S)-3-((7-((5-methyl-1H-pyrazol-3-yl)amino)-1,6-naphthyridin-5-yl)amino)-8-azabicyclo[3.2.1]octan-8-yl)propanenitrile” (priority 2015, dated 2018).
Where two headings read alike, the source gives them in different places.

Assays:
JAK1 = JAK1 (Homo sapiens (Human), UniProt P23458); assay: LanthaScreen JAK biochemical assay (JAK1)
[1] = system: oxazolone-induced colitis; assay: Mouse model of oxazolone-induced colitis; type: in vivo, BALB/C mice; settings: mouse, PO, 1, 3, and/or 10 mg/kg BID
Description: Assay 7: Mouse Model of Oxazalone-Induced Colitis
Oxazolone-induced colitis is an experimental model that has a histological resemblance to human ulcerative colitis (Heller et al. Immunology, 2002, 17, 629-638). Adult BALB/C mice from Harlan were used in the assay. On day 1, animals were lightly anesthetized with isoflurane and the hairs between the shoulder were carefully removed before oxazolone (4%, 150 μL, 4:1 acetone:olive oil formulation) or vehicle solution was slowly applied for skin sensitization. Seven days after skin sensitization, the mice were fasted overnight, anesthetized with isoflurane inhalation, and a 1 mL syringe equipped with a 3.5-F catheter, filled with oxazolone solution, was inserted carefully about 4 cm into the colon of the mouse. Following insertion, 50 μL of the oxazolone solution (1%, 1:1 ethanol:water formulation) was injected very slowly (over 30 sec using an injection pump) into the colon. The catheter was removed and the mice were held vertically (head down) for 2 min to ensure that the entire oxazolone solution remained inside the colon. Drug treatment (PO, BID or TID) or vehicle was initiated a day prior to the oxazolone intrarectal (IR) challenge. Two-day post oxazolone intrarectal challenge, the Disease Activity Index (DAI) was assessed by treatment-blinded experimenters for each mouse according to the criteria score: stool consistency score (0, normal; 2, loose; 4, diarrhea), gross bleeding score (0, absence; 2, blood tinged; 4, presence), and weight loss score (0, none; 1, 1%-5%; 2, 5%-10%; 3, 10%-20%; 4, more than 20%); DAI=average of (stool consistency score+gross bleeding score+weight loss score).
Selected compounds of the invention were tested in the assay. Efficacy in the model is evidenced by a decrease in DAI score as compared with the score from vehicle treated animals.

[2] = system: IL-4 induced STAT6 phosphorylation in THP-1 human monocytic cells; assay: Cellular JAK potency assay, THP-1
[3] = system: IL-13 induced STAT6 phosphorylation in BEAS-2B human lung epithelial cells; assay: AlphaScreen cellular JAK potency assay, BEAS-2B
JAK2 = JAK2 (Homo sapiens (Human), UniProt O60674); assay: LanthaScreen JAK biochemical assay (JAK2)
Sequence of JAK2 (O60674 whole entry): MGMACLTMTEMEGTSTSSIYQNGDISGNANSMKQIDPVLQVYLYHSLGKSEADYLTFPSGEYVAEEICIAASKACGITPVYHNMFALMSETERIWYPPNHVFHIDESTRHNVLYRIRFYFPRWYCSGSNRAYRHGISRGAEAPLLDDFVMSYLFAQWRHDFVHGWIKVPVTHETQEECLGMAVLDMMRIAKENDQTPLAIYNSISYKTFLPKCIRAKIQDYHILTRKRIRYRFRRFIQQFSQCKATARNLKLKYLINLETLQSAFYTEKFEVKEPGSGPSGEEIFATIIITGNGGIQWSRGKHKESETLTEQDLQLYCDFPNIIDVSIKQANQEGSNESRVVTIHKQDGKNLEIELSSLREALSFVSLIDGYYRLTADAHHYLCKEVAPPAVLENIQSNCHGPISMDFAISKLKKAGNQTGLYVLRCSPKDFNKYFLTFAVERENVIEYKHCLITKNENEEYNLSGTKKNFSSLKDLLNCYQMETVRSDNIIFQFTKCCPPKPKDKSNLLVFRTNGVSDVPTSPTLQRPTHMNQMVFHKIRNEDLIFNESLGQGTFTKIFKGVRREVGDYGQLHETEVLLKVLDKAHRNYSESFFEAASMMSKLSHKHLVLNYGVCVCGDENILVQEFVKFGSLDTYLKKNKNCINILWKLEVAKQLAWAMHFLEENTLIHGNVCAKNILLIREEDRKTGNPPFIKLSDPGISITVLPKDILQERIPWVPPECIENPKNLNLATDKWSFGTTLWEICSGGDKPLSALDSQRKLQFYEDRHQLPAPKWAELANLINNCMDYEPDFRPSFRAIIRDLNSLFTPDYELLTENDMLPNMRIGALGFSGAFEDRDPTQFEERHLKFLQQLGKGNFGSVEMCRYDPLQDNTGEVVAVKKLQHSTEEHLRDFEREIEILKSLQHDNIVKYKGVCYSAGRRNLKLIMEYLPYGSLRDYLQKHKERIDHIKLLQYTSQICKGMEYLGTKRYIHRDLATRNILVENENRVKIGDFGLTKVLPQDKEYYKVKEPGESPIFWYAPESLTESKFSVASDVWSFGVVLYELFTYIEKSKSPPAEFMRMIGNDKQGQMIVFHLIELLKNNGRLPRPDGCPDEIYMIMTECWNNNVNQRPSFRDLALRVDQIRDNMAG

JAK3 = JAK3 (Homo sapiens (Human), UniProt P52333); assay: LanthaScreen JAK biochemical assay (JAK3)
Tyk2 = Tyk2 (Homo sapiens (Human), UniProt P29597); assay: LanthaScreen JAK biochemical assay (Tyk2)
Sequence of Tyk2 (P29597 whole entry): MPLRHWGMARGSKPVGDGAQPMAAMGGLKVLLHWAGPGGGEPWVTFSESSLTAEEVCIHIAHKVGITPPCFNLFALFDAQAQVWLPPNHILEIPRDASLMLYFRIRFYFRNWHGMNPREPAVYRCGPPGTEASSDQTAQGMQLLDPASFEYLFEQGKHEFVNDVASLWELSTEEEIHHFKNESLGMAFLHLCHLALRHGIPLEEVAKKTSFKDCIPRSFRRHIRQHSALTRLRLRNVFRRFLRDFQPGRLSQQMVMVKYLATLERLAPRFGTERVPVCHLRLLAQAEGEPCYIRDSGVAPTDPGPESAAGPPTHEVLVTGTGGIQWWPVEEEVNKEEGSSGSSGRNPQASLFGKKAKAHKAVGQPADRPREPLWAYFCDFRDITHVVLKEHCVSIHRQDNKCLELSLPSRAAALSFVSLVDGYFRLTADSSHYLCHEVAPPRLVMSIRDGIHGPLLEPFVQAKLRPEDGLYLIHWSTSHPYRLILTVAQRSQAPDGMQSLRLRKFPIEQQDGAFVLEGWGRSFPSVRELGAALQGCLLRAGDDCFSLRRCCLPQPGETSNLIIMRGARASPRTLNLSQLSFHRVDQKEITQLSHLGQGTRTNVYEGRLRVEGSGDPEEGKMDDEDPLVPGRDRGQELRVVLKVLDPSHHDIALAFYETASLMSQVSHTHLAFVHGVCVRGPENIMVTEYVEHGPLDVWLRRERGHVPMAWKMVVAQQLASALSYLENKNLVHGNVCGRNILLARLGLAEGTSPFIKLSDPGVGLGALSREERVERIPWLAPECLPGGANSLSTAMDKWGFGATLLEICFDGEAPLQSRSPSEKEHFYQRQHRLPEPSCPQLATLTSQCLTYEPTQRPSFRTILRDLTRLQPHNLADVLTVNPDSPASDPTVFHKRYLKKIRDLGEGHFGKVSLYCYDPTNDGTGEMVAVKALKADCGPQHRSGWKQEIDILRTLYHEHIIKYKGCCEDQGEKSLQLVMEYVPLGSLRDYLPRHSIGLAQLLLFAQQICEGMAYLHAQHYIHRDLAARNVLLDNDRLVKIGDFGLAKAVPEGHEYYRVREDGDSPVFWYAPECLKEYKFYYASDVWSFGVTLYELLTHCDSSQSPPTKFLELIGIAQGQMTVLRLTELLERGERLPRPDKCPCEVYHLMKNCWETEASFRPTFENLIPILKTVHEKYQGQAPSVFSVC

[4] = read-out: JAK 1 (pKi) (converted)
[5] = Homo sapiens, THP-1, read-out: THP-1 IL4 pIC50 (converted)
[6] = Homo sapiens, BEAS-2B, read-out: BEAS2B pIC50 (converted)
[7] = IL-13 induced STAT6 phosphorylation, BEAS-2B cells
[8] = IL-4 induced STAT6 phosphorylation, THP-1 cells
[9] = THP-1 cells, IL-4 induced STAT6 phosphorylation
[10] = BEAS-2B cells, IL-13 induced STAT6 phosphorylation

Sequence of JAK1 (P23458 whole entry): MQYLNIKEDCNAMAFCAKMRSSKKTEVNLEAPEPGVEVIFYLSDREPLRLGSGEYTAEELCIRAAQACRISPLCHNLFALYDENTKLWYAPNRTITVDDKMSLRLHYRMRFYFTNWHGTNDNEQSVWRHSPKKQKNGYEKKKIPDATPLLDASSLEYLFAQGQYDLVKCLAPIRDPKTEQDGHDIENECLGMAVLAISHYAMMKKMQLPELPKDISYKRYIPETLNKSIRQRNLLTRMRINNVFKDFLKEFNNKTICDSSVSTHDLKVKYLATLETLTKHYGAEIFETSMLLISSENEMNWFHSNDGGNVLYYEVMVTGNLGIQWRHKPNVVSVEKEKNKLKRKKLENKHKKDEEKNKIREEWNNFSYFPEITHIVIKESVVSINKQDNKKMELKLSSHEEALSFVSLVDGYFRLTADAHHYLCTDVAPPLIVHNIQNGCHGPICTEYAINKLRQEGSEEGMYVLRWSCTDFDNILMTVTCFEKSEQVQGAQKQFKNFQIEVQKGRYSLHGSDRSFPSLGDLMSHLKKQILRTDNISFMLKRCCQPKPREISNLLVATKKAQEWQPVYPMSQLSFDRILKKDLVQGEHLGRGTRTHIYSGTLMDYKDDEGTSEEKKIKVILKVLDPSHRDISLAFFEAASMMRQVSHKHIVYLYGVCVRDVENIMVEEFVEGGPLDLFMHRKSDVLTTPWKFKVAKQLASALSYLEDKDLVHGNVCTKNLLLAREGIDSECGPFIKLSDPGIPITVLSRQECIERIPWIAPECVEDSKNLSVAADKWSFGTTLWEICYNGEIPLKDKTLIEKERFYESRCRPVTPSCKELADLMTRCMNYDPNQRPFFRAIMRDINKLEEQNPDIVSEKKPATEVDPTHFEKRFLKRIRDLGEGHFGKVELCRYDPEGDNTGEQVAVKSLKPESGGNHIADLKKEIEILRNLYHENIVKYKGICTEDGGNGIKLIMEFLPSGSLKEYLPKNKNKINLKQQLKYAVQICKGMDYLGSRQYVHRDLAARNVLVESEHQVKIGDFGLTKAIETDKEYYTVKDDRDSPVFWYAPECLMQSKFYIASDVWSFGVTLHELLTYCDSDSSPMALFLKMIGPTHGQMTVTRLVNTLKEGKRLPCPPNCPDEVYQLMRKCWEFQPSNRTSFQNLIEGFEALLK

Row | Structure (SMILES) | decrease in DAI score as compared with vehicle treated animals [1] | JAK 1 (pKi) (JAK1) | JAK 2 (pKi) (JAK2) | JAK 3 (pKi) (JAK3) | Tyk 2 (pKi) (Tyk2) | THP-1 IL4 pIC50 [2, 9] | further results
1 | CCC(=O)N1[C@@H]2CC[C@H]1C[C@H](Nc1nc(Nc3cc(C)[nH]n3)cc3ncccc13)C2 [Example 2-1] | did not exhibit a statistically significant decrease |  |  |  |  |  | Ki (JAK1; [4]): 0.0001 to 0.001 µM; IC50 [2, 5]: 0.0316 to 0.2 µM; IC50 [3, 6]: 0.0316 to 0.2 µM
2 | Cc1cc(Nc2cc3ncccc3c(N[C@@H]3C[C@H]4CCC[C@@H](C3)N4C(=O)OCC3CC3)n2)n[nH]1 [Example 3-10] |  | B (B represents a pKi value between 9 and 10 (Ki between 1 nM and 0.1 nM)) | B (B represents a pKi value between 9 and 10 (Ki between 1 nM and 0.1 nM)) | C (C represents a pKi value between 7 and 9 (Ki between 100 nM and 1 nM)) | B (B represents a pKi value between 9 and 10 (Ki between 1 nM and 0.1 nM)) |  | BEAS2B pIC50 [3, 7]: B (B represents a pEC50 value between 6.7 and 7.5 (EC50 between 200 nM and 32 nM))
3 | Cc1cc(Nc2cc3ncccc3c(N[C@@H]3C[C@H]4CCC[C@@H](C3)N4C(=O)CN(C)C)n2)n[nH]1 [Example 4, 2-(Dimethylamino)-1-((1R,3s,5S)-3-((7-((5-methyl-1H-pyrazol-3-yl)amino)-1,6-naphthyridin-5-yl)amino)-9-azabicyclo[3.3.1]nonan-9-yl)ethan-1-one] | statistically significant decrease |  |  |  |  |  | Ki (JAK1): 0.0001 to 0.001 µM; Ki (JAK2; read-out: JAK 2 (pKi) (converted)): 0.0001 to 0.001 µM; IC50 [2, 5]: 0.0316 to 0.2 µM
4 | Cc1cc(Nc2cc3ncccc3c(N[C@@H]3C[C@H]4CC[C@@H](C3)N4S(=O)(=O)Cc3ccccc3)n2)n[nH]1 [Example 4-13] | did not exhibit a statistically significant decrease | B (B represents a pKi value between 9 and 10 (Ki between 1 nM and 0.1 nM)) |  |  |  |  | THP-1 IL4 pIC50 [2, 8]: B (B represents a pEC50 value between 6.7 and 7.5 (EC50 between 200 nM and 32 nM)); BEAS2B pIC50 [3, 7]: A (A represents a pEC50 value≥7.5 (EC50≤32 nM))
5 | Cc1cc(Nc2cc3ncccc3c(N[C@@H]3C[C@H]4CCC[C@@H](C3)N4S(=O)(=O)C3CC3)n2)n[nH]1 [Example 4-18] | did not exhibit a statistically significant decrease | A (A represents a pKi value≥10 (Ki≤0.1 nM)) |  |  |  |  | THP-1 IL4 pIC50 [2, 8]: A (A represents a pEC50 value≥7.5 (EC50≤32 nM)); BEAS2B pIC50 [3, 7]: A (A represents a pEC50 value≥7.5 (EC50≤32 nM))
6 | Cc1cc(Nc2cc3ncccc3c(N[C@@H]3C[C@H]4CCC[C@@H](C3)N4S(=O)(=O)CC3CC3)n2)n[nH]1 [Example 4-23] | did not exhibit a statistically significant decrease |  |  |  |  |  | THP-1 IL4 pIC50 [2, 8]: A (A represents a pEC50 value≥7.5 (EC50≤32 nM)); BEAS2B pIC50 [3, 7]: A (A represents a pEC50 value≥7.5 (EC50≤32 nM))
7 | COCCS(=O)(=O)N1[C@@H]2CC[C@H]1C[C@H](Nc1nc(Nc3cc(C)[nH]n3)cc3ncccc13)C2 [Example 6, N^5-((1R,3s,5S)-8-((2-methoxyethyl)sulfonyl)-8-azabicyclo[3.2.1]octan-3-yl)-N^7-(5-methyl-1H-pyrazol-3-yl)-1,6-naphthyridine-5,7-diamine] | statistically significant decrease |  |  |  |  |  | 
8 | Cc1cnc2cc(Nc3cc(C)[nH]n3)nc(N[C@@H]3C[C@H]4CC[C@@H](C3)N4CCC#N)c2c1 [Example 6-1] |  | B (B represents a pKi value between 9 and 10 (Ki between 1 nM and 0.1 nM)) | B (B represents a pKi value between 9 and 10 (Ki between 1 nM and 0.1 nM)) | C (C represents a pKi value between 7 and 9 (Ki between 100 nM and 1 nM)) | B (B represents a pKi value between 9 and 10 (Ki between 1 nM and 0.1 nM)) | A (A represents a pEC50 value≥7.5 (EC50≤32 nM)) | BEAS2B pIC50 [3, 10]: A (A represents a pEC50 value≥7.5 (EC50≤32 nM))
9 | Cc1cnc2cc(Nc3cc(C)[nH]n3)nc(N[C@@H]3C[C@H]4CC[C@@H](C3)N4S(C)(=O)=O)c2c1 [Example 6-5] |  |  | A (A represents a pKi value≥10 (Ki≤0.1 nM)) |  |  |  | Ki (JAK1; [4]): 0.0001 to 0.001 µM; Ki (JAK3; read-out: JAK 3 (pKi) (converted)): 0.001 to 0.1 µM; Ki (Tyk2; read-out: Tyk 2 (pKi) (converted)): 0.0001 to 0.001 µM; IC50 [2, 5]: < 0.0316 µM; IC50 [3, 6]: < 0.0316 µM
10 | COc1cnc2cc(Nc3cc(C)[nH]n3)nc(N[C@@H]3C[C@H]4CC[C@@H](C3)N4S(=O)(=O)CCC#N)c2c1 [Example 6-22] |  | B (B represents a pKi value between 9 and 10 (Ki between 1 nM and 0.1 nM)) | B (B represents a pKi value between 9 and 10 (Ki between 1 nM and 0.1 nM)) | C (C represents a pKi value between 7 and 9 (Ki between 100 nM and 1 nM)) | B (B represents a pKi value between 9 and 10 (Ki between 1 nM and 0.1 nM)) |  | BEAS2B pIC50 [3, 10]: B (B represents a pEC50 value between 6.7 and 7.5 (EC50 between 200 nM and 32 nM))
11 | COC(=O)c1cnc2cc(Nc3cc(C)[nH]n3)nc(N[C@@H]3C[C@H]4CCC[C@@H](C3)N4CCC#N)c2c1 [Example 6-47] |  | A (A represents a pKi value≥10 (Ki≤0.1 nM)) | A (A represents a pKi value≥10 (Ki≤0.1 nM)) | B (B represents a pKi value between 9 and 10 (Ki between 1 nM and 0.1 nM)) | B (B represents a pKi value between 9 and 10 (Ki between 1 nM and 0.1 nM)) | A (A represents a pEC50 value≥7.5 (EC50≤32 nM)) | BEAS2B pIC50 [3, 10]: A (A represents a pEC50 value≥7.5 (EC50≤32 nM))
12 | COC(=O)c1cnc2cc(Nc3cc(C)[nH]n3)nc(N[C@@H]3C[C@H]4CCC[C@@H](C3)N4C[C@H]3CCC(=O)O3)c2c1 [Example 6-49] |  | B (B represents a pKi value between 9 and 10 (Ki between 1 nM and 0.1 nM)) | B (B represents a pKi value between 9 and 10 (Ki between 1 nM and 0.1 nM)) | C (C represents a pKi value between 7 and 9 (Ki between 100 nM and 1 nM)) | C (C represents a pKi value between 7 and 9 (Ki between 100 nM and 1 nM)) | B (B represents a pEC50 value between 6.7 and 7.5 (EC50 between 200 nM and 32 nM)) | 
13 | Cc1cc(Nc2nc(NC3CC4CCC(C3)N4C(=O)C(C)O)c3cccnc3c2F)n[nH]1 (stereo not drawn) [Example 8-8] |  | C (C represents a pKi value between 7 and 9 (Ki between 100 nM and 1 nM)) | C (C represents a pKi value between 7 and 9 (Ki between 100 nM and 1 nM)) | C (C represents a pKi value between 7 and 9 (Ki between 100 nM and 1 nM)) | C (C represents a pKi value between 7 and 9 (Ki between 100 nM and 1 nM)) | C (C represents a pEC50 value<6.7 (EC50>200 nM)) | 
14 | Cc1cc(Nc2nc(N[C@@H]3C[C@H]4CCC[C@@H](C3)N4S(=O)(=O)c3ccccc3)c3cccnc3c2F)n[nH]1 [Example 8-11] |  | B (B represents a pKi value between 9 and 10 (Ki between 1 nM and 0.1 nM)) | B (B represents a pKi value between 9 and 10 (Ki between 1 nM and 0.1 nM)) | C (C represents a pKi value between 7 and 9 (Ki between 100 nM and 1 nM)) | C (C represents a pKi value between 7 and 9 (Ki between 100 nM and 1 nM)) | B (B represents a pEC50 value between 6.7 and 7.5 (EC50 between 200 nM and 32 nM)) | BEAS2B pIC50 [3, 10]: A (A represents a pEC50 value≥7.5 (EC50≤32 nM))
15 | Cc1cc(Nc2nc(NC3CC4CCCC(C3)N4C(=O)C(C)O)c3cccnc3c2F)n[nH]1 (stereo not drawn) [Example 8-16] |  | B (B represents a pKi value between 9 and 10 (Ki between 1 nM and 0.1 nM)) | B (B represents a pKi value between 9 and 10 (Ki between 1 nM and 0.1 nM)) | C (C represents a pKi value between 7 and 9 (Ki between 100 nM and 1 nM)) | C (C represents a pKi value between 7 and 9 (Ki between 100 nM and 1 nM)) | B (B represents a pEC50 value between 6.7 and 7.5 (EC50 between 200 nM and 32 nM)) | 
16 | Cc1cc(Nc2cc3ncccc3c(N[C@@H]3C[C@H]4CCC[C@@H](C3)N4S(=O)(=O)N3CC(C#N)C3)n2)n[nH]1 [Example 11, 1-(((1R,3s,5S)-3-((7-((5-methyl-1H-pyrazol-3-yl)amino)-1,6-naphthyridin-5-yl)amino)-9-azabicyclo[3.3.1]nonan-9-yl)sulfonyl)azetidine-3-carbonitrile] | did not exhibit a statistically significant decrease |  |  |  |  |  | IC50 [2, 5]: 0.0316 to 0.2 µM; IC50 [3, 6]: < 0.0316 µM
